Values quoted from earlier work, collected in publication PMC7855644 (Journal of pharmaceutical sciences, 2020).
Where no end group is shown, it is not given here.

Tested on: blood brain barrier

In vivo transcytosis: lack of in vivo transcytosis
Substance: TFFYGGSRGRRNNFRTEEY-NH2 [Peptide A7]
